Test [1] addresses T1, human GLP-1R (Homo sapiens, UniProt P43220).
T1 construct: expressed in transfected cells
The test is described as follows: Intracellular calcium mobilization (Gαq), FLIPR, CHO cells expressing the human GLP-1R. Conditions: 1 μM FR900359 in loading medium; CHO-GLP-1R expressing cells. In kind it is cell-based. On the technique in general: Calcium assays in cells follow changes in intracellular calcium, usually with a dye or a luminescent sensor.
Method: The stable CHO cell line (generated in-house using CHO-K1 cell line purchased from ATCC) expressing a functional human GLP-1R was cultured in F12 medium (Gibco) supplemented with 10% fetal bovine serum and 500 μg ml^−1 geneticin.

The test system of test [2] is human GLP-1R. The test is described as follows: Ligand bias, equiactive comparison with Ex4 as reference. In kind it is cell-based.

*1 amine or outer side, *2 acyl side, *3 side chain or, on linkers, in order; H or OH if unused. Where a SMILES comes first, the peptide text is derived from it. Bridges are numbered along the chain shown (N, C = ends). [ ]: non-standard residue; d: D form. The star is where a group is joined. Leu(3R-OH,Nα-propionyl) = CCC(=O)N[C@H](C(=O)*)[C@H](O)C(C)C; X1 = CC(C)[C@@H](O[*:3])[C@H](N[*:1])C(=O)[*:2]; NMeT = CN[C@H](C(=O)O)[C@@H](C)O; dPhLac = O=C(O)[C@H](O)Cc1ccccc1; NMeA = CN[C@@H](C)C(=O)O; NMeDha = C=C(NC)C(=O)O

T1 sequence (P43220 24-463): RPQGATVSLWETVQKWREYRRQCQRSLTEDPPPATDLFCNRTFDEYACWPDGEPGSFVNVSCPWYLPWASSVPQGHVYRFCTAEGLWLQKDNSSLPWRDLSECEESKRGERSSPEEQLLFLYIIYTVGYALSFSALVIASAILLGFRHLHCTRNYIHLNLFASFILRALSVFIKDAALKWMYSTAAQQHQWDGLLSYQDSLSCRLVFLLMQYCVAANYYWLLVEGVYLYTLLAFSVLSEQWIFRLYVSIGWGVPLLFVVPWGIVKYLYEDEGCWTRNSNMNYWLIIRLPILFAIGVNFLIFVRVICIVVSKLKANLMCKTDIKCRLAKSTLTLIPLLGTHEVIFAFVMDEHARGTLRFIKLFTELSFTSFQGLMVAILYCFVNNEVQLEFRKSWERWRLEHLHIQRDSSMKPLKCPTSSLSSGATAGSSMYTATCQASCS

For the molecule `C=C1C(=O)N[C@@H](C)C(=O)N(C)[C@@H](C)C(=O)N[C@@H]([C@H](OC(=O)[C@@H](NC(=O)CC)[C@H](O)C(C)C)C(C)C)C(=O)N(C)[C@@H]([C@@H](C)OC)C(=O)O[C@H](C(C)C)[C@H](NC(C)=O)C(=O)O[C@H](Cc2ccccc2)C(=O)N1C` [FR900359] (Ac-[X1][dPhLac][NMeDha]A[NMeA][X1](Leu(3R-OH,Nα-propionyl))[NMeT](Me); ester 1-C), the “Inhibition of P5-induced increase in [Ca2+]i” value at human GLP-1R [1] is recorded as “inhibited”.

`CC[C@H](C)[C@H](NC(=O)[C@H](Cc1ccccc1)NC(=O)[C@H](CCC(=O)O)NC(=O)[C@H](CCCCN)NC(=O)[C@H](C)NC(=O)[C@H](C)NC(=O)[C@H](CCC(N)=O)NC(=O)CNC(=O)[C@H](CCC(=O)O)NC(=O)[C@H](CC(C)C)NC(=O)[C@H](Cc1ccc(O)cc1)NC(=O)[C@H](CO)NC(=O)[C@H](CO)NC(=O)[C@@H](NC(=O)[C@H](CC(=O)O)NC(=O)[C@H](CO)NC(=O)[C@@H](NC(=O)[C@H](Cc1ccccc1)NC(=O)[C@@H](NC(=O)CNC(=O)[C@H](CCC(=O)O)NC(=O)[C@H](C)NC(=O)[C@@H](N)Cc1c[nH]cn1)[C@@H](C)O)[C@@H](C)O)C(C)C)C(=O)N[C@@H](C)C(=O)N[C@@H](Cc1c[nH]c2ccccc12)C(=O)N[C@@H](CC(C)C)C(=O)N[C@H](C(=O)N[C@@H](CCCCN)C(=O)NCC(=O)N[C@@H](CCCNC(=N)N)C(N)=O)C(C)C` [GLP-1, glucagon-like peptide-1]: the “Ligand bias (in words)” value in the test with human GLP-1R [2] was “did not demonstrate detectable bias”. In the test with human GLP-1R [2] (mean ± s.d.), the “Bias factor (β), Gq vs β-arrestin 1” value came out at 0.16 ± 0.13; the “Bias factor (β), Gq vs β-arrestin 2” value is listed as 0.2 ± 0.08; the “Bias factor (β), Gs vs β-arrestin 2” value is -0.04 ± 0.11. For the same molecule, the “Bias factor (β), Gs vs β-arrestin 1” value in the test with human GLP-1R [2] (mean ± s.d. of a typical experiment performed three times) is listed as -0.08 ± 0.11.

The values are drawn from publication PMC4686834, “Autocrine selection of a GLP-1R G-protein biased agonist with potent antidiabetic effects” (Nature Communications, 2015).
